Measured values from PubChem BioAssay (NCI).
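Following 48 hours of exposure in 96-well plates, responses at five concentrations were used to interpolate endpoints linearly. GI50 = concentration required for 50% inhibition of growth. The concentration for full growth arrest is given as TGI.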

Tests used:
Assay in all cases: NCI tumour cell line growth inhibition, 48 h
HCC-2998 colon = system: HCC-2998 colon
SW-620 colon = system: SW-620 colon
HCT-15 colon = system: HCT-15 colon
DU-145 prostate = system: DU-145 prostate
SF-539 CNS = system: SF-539 CNS
UO-31 renal = system: UO-31 renal
CAKI-1 renal = system: CAKI-1 renal
SNB-75 CNS = system: SNB-75 CNS
SNB-19 CNS = system: SNB-19 CNS
OVCAR-4 ovarian = system: OVCAR-4 ovarian
OVCAR-3 ovarian = system: OVCAR-3 ovarian
NCI-H23 lung = system: NCI-H23 lung
TK-10 renal = system: TK-10 renal
COLO 205 colon = system: COLO 205 colon
HS 578T breast = system: HS 578T breast
NCI-H460 lung = system: NCI-H460 lung
LOX IMVI melanoma = system: LOX IMVI melanoma
CCRF-CEM leukemia = system: CCRF-CEM leukemia
MDA-MB-468 breast = system: MDA-MB-468 breast
NCI-H226 lung = system: NCI-H226 lung
RPMI-8226 leukemia = system: RPMI-8226 leukemia
MOLT-4 leukemia = system: MOLT-4 leukemia
SK-OV-3 ovarian = system: SK-OV-3 ovarian
PC-3 prostate = system: PC-3 prostate
HT29 colon = system: HT29 colon
EKVX NSCLC = system: EKVX NSCLC
SR leukemia = system: SR leukemia
U251 CNS = system: U251 CNS
T-47D breast = system: T-47D breast

Structure (SMILES): O=C(c1ccc(Cl)cc1)c1ccc(OCCCN2CCN(c3ccncc3)CC2)cc1
- GI50 (HCC-2998 colon): 3.01 µM
- TGI (HCC-2998 colon): 8.47 µM
- GI50 (SW-620 colon): 2.57 µM
- GI50 (HCT-15 colon): 1.48 µM
- TGI (HCT-15 colon): 4.46 µM
- GI50 (DU-145 prostate): 10.1 µM
- TGI (DU-145 prostate): 23.6 µM
- GI50 (SF-539 CNS): 1.77 µM
- TGI (SF-539 CNS): 4.58 µM
- GI50 (UO-31 renal): 2.36 µM
- TGI (UO-31 renal): 10.4 µM
- GI50 (CAKI-1 renal): 4.95 µM
- TGI (CAKI-1 renal): 19.4 µM
- GI50 (SNB-75 CNS): 3.17 µM
- TGI (SNB-75 CNS): 18.6 µM
- GI50 (SNB-19 CNS): 9.11 µM
- TGI (SNB-19 CNS): 21.8 µM
- GI50 (OVCAR-4 ovarian): 5.07 µM
- TGI (OVCAR-4 ovarian): 23.9 µM
- GI50 (OVCAR-3 ovarian): 3.9 µM
- TGI (OVCAR-3 ovarian): 17.3 µM
- GI50 (NCI-H23 lung): 2.89 µM
- TGI (NCI-H23 lung): 11.7 µM
- GI50 (TK-10 renal): 12.3 µM
- TGI (TK-10 renal): 25.6 µM
- GI50 (COLO 205 colon): 1.7 µM
- TGI (COLO 205 colon): 3.51 µM
- GI50 (HS 578T breast): 6.05 µM
- TGI (HS 578T breast): 27.7 µM
- GI50 (NCI-H460 lung): 4.81 µM
- TGI (NCI-H460 lung): 18 µM
- GI50 (LOX IMVI melanoma): 1.69 µM
- TGI (LOX IMVI melanoma): 3.25 µM
- GI50 (CCRF-CEM leukemia): 2.7 µM
- TGI (CCRF-CEM leukemia): 12.2 µM
- GI50 (MDA-MB-468 breast): 1.39 µM
- TGI (MDA-MB-468 breast): 4.38 µM
- GI50 (NCI-H226 lung): 4.22 µM
- TGI (NCI-H226 lung): 19.8 µM
- GI50 (RPMI-8226 leukemia): 2.38 µM
- TGI (RPMI-8226 leukemia): 10 µM
- GI50 (MOLT-4 leukemia): 2.88 µM
- TGI (MOLT-4 leukemia): 9.07 µM
- GI50 (SK-OV-3 ovarian): 5.1 µM
- TGI (SK-OV-3 ovarian): 18.4 µM
- GI50 (PC-3 prostate): 3.4 µM
- TGI (PC-3 prostate): 21.4 µM
- GI50 (HT29 colon): 1.81 µM
- TGI (HT29 colon): 6.41 µM
- GI50 (EKVX NSCLC): 3.62 µM
- TGI (EKVX NSCLC): 15.5 µM
- GI50 (SR leukemia): 1.7 µM
- TGI (SR leukemia): 5.65 µM
- GI50 (U251 CNS): 3.98 µM
- TGI (U251 CNS): 15.2 µM
- GI50 (T-47D breast): 3.22 µM
- TGI (T-47D breast): 18.3 µM
